According to patent publication US4087603A, “Antifungal antibiotics” (priority 1976, dated 1978):

Tests used:
[1] = test system: fungi; details: cited from earlier work
[2] = Solubility; format: physicochemical
[3] = test system: systemic fungal infections; details: cited from earlier work
[4] = Acute toxicity in mice; format: in vivo
[5] = test system: C. albicans A-26; experiment: In vivo antifungal activity in X-irradiated mice infected intravenously with C. albicans A-26; details: Candida albicans, A26, light or radiation study, sc, C. albicans A-26 i.v. infection, sub-lethal X-irradiation 24 hours prior, read-out: average effective dose, ED50
Protocol: As previously mentioned, the compounds of this invention are effective systemic antifungal agents. When administered orally or parenterally, the antifungal compounds of this invention are effective in combatting systemic fungal infections for example, Candida albicans systemic infections. […] The tests in mice were carried out in the following manner. Two groups of mice, one a control group, were exposed to a sub-lethal dose of X-irradiation 24 hours prior to infection with C. albicans A-26. The mice were infected by intravenous administration of C. albicans cells.

For `Nc1ncnc2c1ncn2[C@@H]1O[C@H](CC(N)CC[C@H](N)C(=O)O)[C@@H](O)[C@H]1O` (stereo partly drawn) [A-9145, 5'-deoxy-5'-(1,4-diamino-4-carboxybutyl)adenosine], the “activity in vitro (known antibiotic)” value [1] is listed as “active both in vitro and in vivo”, the solubility in methanol [2] is listed as “partially soluble” and the “activity in vivo (known antibiotic)” value [3] is listed as “active both in vitro and in vivo”.
With `Nc1ncnc2c1ncn2[C@@H]1O[C@H](CC2CCC(N)C(=O)N2)[C@@H](O)[C@H]1O` (stereo partly drawn) [compound I, 5'-deoxy-5'-(3-aminopiperidin-2-one-6-yl)adenosine] the solubility in acetone ([2]; acetone) was “sparingly soluble”, the solubility in ethanol ([2]; ethanol) was “sparingly soluble” and the solubility in methanol [2] was “sparingly soluble”. For the same molecule, the solubility in water [2] was “highly soluble”, the acute toxicity ([4]; mice, dose of about 1000 mg./kg.) was “no acute toxicity was observed” and the ED50 [5] was 38 mg/kg.
For `NC(=O)NC(CCC(N)C[C@H]1O[C@@H](n2cnc3c(N)ncnc32)[C@H](O)[C@@H]1O)C(N)=O` (stereo partly drawn) [compound II, 5'-deoxy-5'-(1-amino-4-ureido-4-carboxyamidobutyl)adenosine], the solubility in water [2] was “highly soluble”, the acute toxicity ([4]; dose of 400 mg./kg.) was “no acute toxicity was observed” and the ED50 [5] was roughly 21 mg/kg.
